{
  "source": "patent US20060051868A1",
  "about": "“Methods for increasing conifer somatic embryo initiation, capture, and multiplication” (priority 2001, published 2006)",
  "type_in_all_cases": "cell-based",
  "key": {"[1]": {"test_system": "Loblolly pine megagametophytes", "assay": "Initiation frequency of embryogenic cultures from Loblolly pine megagametophyte explants", "protocol": "Explants were megagametophytes isolated from Loblolly pine summer cones when embryos were at approximately stage 2-4. Seeds were. collected from four individual trees of diverse genotypes. Extracted seeds were soaked in running water for 10 minutes, agitated in 10% liquinox supplemented with 1.1 ml/l of Tween 20 for 10 minutes, and rinsed with water for 30 minutes. Seeds were sterilized in a laminar flow hood by agitating in 20% hydrogen peroxide for 10 minutes and rinsing with sterile deionized water. The seed coat, integuments, and nucellus were removed to isolate the megagametophytes. Culturing was performed in 24-well multi-well culture plates with each well having an approximate volume of 3.0 ml. Two ml of media was poured into each well.\nEach replication consisted of eight adjacent wells on a multi-well plate, with one megagametophyte per well, providing three replications per multi-well plate. Twelve replications (for a total of 96 explants) were performed per treatment for each cone collection. The well plates were wrapped in Parafilm®, elastic wrap to minimize evaporation and incubated at 22-24° C. under dark conditions for nine weeks. Initiation frequency was scored for each dish by counting the number of explants which had successfully initiated embryogenic cultures.\nThe media treatments consisted of: (1) a control media #1043 (see Table 21); (2) media #1218, comprising media #1043 supplemented with 250 mg/l MES buffer; (3) media #1043 supplemented with 0.5 ppm folic acid and 0.05 ppm biotin; and (4) media #1218 supplemented with 0.5 ppm folic acid and 0.05 ppm biotin.\nA representative procedure is shown for Loblolly pine. Experimental procedure follow similarly for other conifer but differ slightly in the composition of media used. […] Here, however, each treatment-genotype test consisted of ten replications of ten explants.\nThe cultures were covered and incubated in the dark at 24-26° C. for nine weeks.\nExplants from four Loblolly pine cone collections were prepared and cultured as described in Example 2. The media treatments consisted of control media, #1218, which is media #1043 supplemented. with 250 mg/l MES, and four treatment media, which consist of media #1218 supplemented with 0.33, 1.0, 2.0, and 3.0 ppm paclobutrazol, respectively.\nFour cone collections with embryos at stages 2-4 were used. Eighty explants from each cone collection on each media were tested. Seeds were removed from cones and soaked in running water for 10 min. Seeds were then agitated in 10% liquinox containing 1.1 ml/l Tween 20 for 10 min., and then rinsed with running tap water for 30 min. After transferring to a sterile hood, seeds were agitated in 20% H2O2 for 10 min., rinsed with sterile nanopure® H2O five times for 5 to 10 min. intervals, and then placed into a sterile petri dish for dissection. Seeds were dissected by splitting the seed coat, removing the integuments and nucellus. The megagametophyte was placed onto the appropriate medium. Each multi-well test plate contained 2 ml of solid media. Plates were incubated in the dark for 8 weeks and then scored.\nThe control media, media #1253, is described in detail in Table 16. All test media, #1275, #1421, #1422, and #1423 were comprised of the control media with the addition of a gibberellin inhibitor."}, "[2]": {"test_system": "Loblolly pine embryogenic cultures", "assay": "Growth of Loblolly pine embryogenic cultures from single somatic embryos (tissue diameter, area)", "conditions": "base Media 1191, ABA 1.3 mg/l, standard atmosphere, five weeks", "protocol": "Three previously initiated Loblolly pine embryogenic cultures, each representing a different genotype, were grown in liquid media #1133, used as starting material for embryogenic cultures on various treatment media. Using a dissecting scope, individual stage 2 somatic embryos were extracted and placed on treatment media in the center of individual wells on a well plate. Forty embryos were prepared per treatment media, per genotype. Well plates were wrapped in Parafilm® and cultured under standard conditions at room temperature in the dark for four weeks. Embryogenic cultures derived from the single isolated embryos proliferated and spread over the surface of the culture medium. Spreading cultures were roughly circular in shape, radiating from the central embryo. At the end of four weeks, the growth of each culture was measured by measuring colony diameter using a dissecting scope ocular micrometer. Five treatment media were compared to control media #1043 (Table 21). Three media consisted of #1043 supplemented with paclobutrazol at concentrations of 0.33, 1.0 and 3.0 ppm. A B-vitamin treatment contained biotin at 0.05 ppm and folic acid at 0.5 ppm. […] The pH of media containing four different concentrations of MES was compared to that of a non-buffered control media during eight weeks of embryogenic culture growth. Maintenance cultures were established on treatment media using single isolated somatic embryos. Maintenance cultures were prepared and cultured essentially as described in Example 5. The control media was #1043. (See Table 21). The treatment media consisted of #1043 supplemented with 250, 500, 1000 and 1500 mg/l MES. Media pH was adjusted to 5.7 within all treatments prior to autoclaving, pouring and solidification. Immediately after pouring the media, and thereafter at two week intervals, media pH was measured up to the eighth week of culture growth. At each sampling time, four cultures from each media-genotype treatment were destructively sampled to measure the pH of the media directly underlying the growing embryogenic tissue. This experiment measured the effects of ABA, vitamins, culturing in a closed container, and culturing at increased atmospheric pressure on the growth of embryogenic cultures. Maintenance cultures were prepared on well plates using single somatic embryos, essentially as described in Example 5."}, "[3]": {"test_system": "Loblolly pine initiates", "assay": "Percentage of Loblolly pine maintenance cultures with mass greater than 200 mg at eight weeks", "conditions": "control 33.7", "description": "“Initiates” will be used to refer to recently initiated embryogenic tissues still on the initiation media. In this experiment, initiates were transferred to a maintenance and multiplication media directly from the initiation media. Five treatments, consisting of various media or culture conditions were imposed on the these cultures. Treatment media were based on media #1191. (See Table 21.) Initiates derived from eight different cone collections of Loblolly pine were transferred to vials containing 5 ml solid media. Seventy five replications were prepared for each treatment.\nThe transferred initiates were grown in the various treatments for four weeks, and thereafter transferred to vials containing fresh media (of the same composition utilized during the previous four weeks). At the end of a second four-week period, cultures were carefully removed from the vials and weighed. The percentage of cultures that had attained a mass of 200 mg or more was calculated for each treatment."}, "[4]": {"test_system": "conifer", "assay": "Inventors' observation of initiation frequency in conifer with gibberellins"}, "[5]": {"conditions": "base media #1253, 1.0 ppm paclobutrazol, 0.1062 ppm flurprimidol, 1.58 ppm chlormequat-Cl, 0.16 ppm succinic acid-dh, 8 weeks, dark, control 29.5"}, "[6]": {"conditions": "base media #1253, 1.0 ppm paclobutrazol, 0.1062 ppm flurprimidol, 1.58 ppm chlormequat-Cl, 0.16 ppm succinic acid-dh, 8 weeks, dark, control 58.6"}},
  "note": "Read-outs that look alike come from different tables or passages of the source.",
  "data": [
    {"compound": "CC(C)C(O)(c1ccc(OC(F)(F)F)cc1)c1cncnc1", "note": "(centres unmarked) [Flurprimidol, flurprimidol]", "values": [
      {"measurement": "Extrusion (%)", "setting": "[1]", "result": 59.9, "unit": "%"},
      {"measurement": "Initiation Frequency (%)", "setting": "[1]", "result": 36.3, "unit": "%"}
    ]},
    {"compound": "CN(C)NC(=O)CCC(=O)O", "note": "[Succinic Acid-DH, succinic acid-DH]", "values": [
      {"measurement": "Initiation Frequency (%)", "setting": "[1]; [5]", "result": 38.0, "unit": "%"},
      {"measurement": "Extrusion (%)", "setting": "[1]; [6]", "result": 63.3, "unit": "%"}
    ]},
    {"compound": "CC1=CC(=O)CC(C)(C)[C@@]1(O)/C=C/C(C)=C\\C(=O)O", "note": "[ABA, abscisic acid]", "values": [
      {"measurement": "Tissue diameter (mm)", "setting": "[2]; control 4.11", "result": 4.61, "unit": "mm"},
      {"measurement": "Tissue area (mm^2)", "setting": "[2]; control 13.3", "result": 16.7, "unit": "mm^2"},
      {"measurement": "% mass >200 mg", "setting": "[3]; Media 1191 + 1.3 mg/l ABA, cultured at 1.5 atm", "result": 61.2, "unit": "%"},
      {"measurement": "% mass >200 mg", "setting": "[3]; base Media 1191, ABA 1.3 mg/l, brassinolide 0.1 μM + paclobutrazol 1.0 ppm, MES 250 mg/l, biotin 0.05 ppm, folic acid 0.5 ppm", "result": 48.6, "unit": "%"}
    ]},
    {"compound": "C[N+](C)(C)CCCl", "note": "[Chlormequat-Cl, chlormequat-Cl]", "values": [
      {"measurement": "Initiation Frequency (%)", "setting": "[1]; [5]", "result": 36.8, "unit": "%"},
      {"measurement": "Extrusion (%)", "setting": "[1]; [6]", "result": 61.6, "unit": "%"}
    ]},
    {"compound": "C=C1C[C@]23C[C@@]1(O)CC[C@H]2[C@@]12C=C[C@H](O)[C@@](C)(C(=O)O1)[C@H]2[C@@H]3C(=O)O", "note": "[gibberellic acid]", "values": [
      {"measurement": "effect on initiation frequency in conifer", "setting": "[4]", "result": "inhibitory effect"}
    ]}
  ]
}
